Experimental data: US20260137707A1, “METHODS OF MODULATING ATXN2 EXPRESSION” (University of Utah Research Foundation, priority 2022, published 2026)
Where a name gives a salt, the structure may show the parent alone. Read-outs that look alike come from different tables or passages of the source.

What was measured:
[1] = test system: ATXN2-luc; details: H2 cells
[2] = test system: ATXN2-luc; assay: cells; details: for activity at 10 µM: read-out: Luc at 10 μm; for activity at 1 µM: read-out: Luc at 1 μm
[3] = Table 1, 24 hrs, single 10 μM dose, Z-score of luciferase

| Molecule | SD from Mean [1, 3] [SD] | activity at 10 µM [2] [%] | further results |
| --- | --- | --- | --- |
| COC(=O)C[C@](O)(CCCC(C)(C)O)C(=O)O[C@@H]1C(OC)=C[C@]23CCCN2CCc2cc4c(cc2[C@H]13)OCO4 [HOMOHARRINGTONINE] | −3.117 | – | – |
| C[C@@H]1O[C@@H](O[C@H]2C[C@@H](O)[C@]3(CO)[C@@H]4[C@@H](O)C[C@]5(C)[C@H](C6=CC(=O)OC6)CC[C@@]5(O)[C@H]4CC[C@]3(O)C2)[C@H](O)[C@H](O)[C@@H]1O [Strophantine octahydrate] | −3.624 | – | – |
| CNC1CC(c2ccc(Cl)c(Cl)c2)c2ccccc21 (stereo not drawn) [Indatraline] | – | 6 | – |
| C[C@H]1O[C@@H](O[C@H]2[C@@H](O)C[C@H](O[C@H]3[C@@H](O)C[C@H](O[C@H]4CC[C@@]5(C)[C@H](CC[C@@H]6[C@@H]5CC[C@]5(C)[C@@H](C7=CC(=O)OC7)CC[C@]65O)C4)O[C@@H]3C)O[C@@H]2C)C[C@H](O)[C@@H]1O [DIGITOXIN] | −4.100 | 19 | activity at 1 µM [2]: 27%; SD from Mean ([1]; Table 5S, pilot screen, 10 μM): −4.100 SD |
| CN1CCN(CCCN2c3ccccc3Sc3ccc(C(F)(F)F)cc32)CC1 [TRIFLUOPERAZINE HYDROCHLORIDE] | −5.856 | 2 | SD from Mean ([1]; Table 5S, pilot screen, 10 μM): −5.856 SD |
| COc1cccc(C2(O)CCCCC2CN(C)C)c1 (stereo not drawn) [Tramadol] | −3.415 | 134 | – |
| COc1cc([C@@H]2c3cc4c(cc3[C@@H](O[C@@H]3O[C@@H]5CO[C@@H](c6cccs6)O[C@H]5[C@H](O)[C@H]3O)[C@H]3COC(=O)[C@H]23)OCO4)cc(OC)c1O [TENIPOSIDE] | −2.832 | – | – |
| Nc1c2ccccc2nc2ccccc12 [AMINACRINE] | −4.103 | – | – |
| N=c1ccn2c(n1)O[C@H]1[C@H](O)[C@@H](CO)O[C@H]12 [ANCITABINE HYDROCHLORIDE] | −3.031 | – | – |
| CO[C@H]1[C@H](O)[C@H](O[C@H]2CC[C@@]3(C=O)[C@H](CC[C@@H]4[C@@H]3CC[C@]3(C)[C@@H](C5=CC(=O)OC5)CC[C@]43O)C2)O[C@@H](C)[C@@H]1O [PERUVOSIDE] | −4.038 | 12 | activity at 1 µM [2]: 15%; SD from Mean ([1]; Table 5S, pilot screen, 10 μM): −4.038 SD |
| CC(C)[N+](C)(CCC(C(N)=O)(c1ccccc1)c1ccccc1)C(C)C [ISOPROPAMIDE IODIDE] | −4.073 | – | – |
| CC(C)=CCC[C@]1(C)C=Cc2c(O)c3c(c(CC=C(C)C)c2O1)O[C@]12C(=C[C@@H]4C[C@H]1C(C)(C)O[C@@]2(C/C=C(/C)C(=O)O)C4=O)C3=O [GAMBOGIC ACID] | −4.841 | – | – |
| O=C1C=CC(=O)c2ccccc21 [4-NAPHTHOQUINONE] | −3.613 | – | – |
| C[C@]12CC[C@H]3[C@@H](CC[C@]4(O)C[C@@H](O)CC[C@]34C=O)[C@@]1(O)CC[C@@H]2C1=CC(=O)OC1 [STROPHANTHIDIN] | – | 15 | activity at 1 µM [2]: 16%; SD from Mean ([1]; Table 5S, pilot screen, 10 μM): −4.451 SD |
| C[C@@H]1O[C@@H](O[C@H]2CC[C@]3(C=O)[C@H]4CC[C@]5(C)[C@@H](C6=CC(=O)OC6)CC[C@]5(O)[C@@H]4CC[C@]3(O)C2)[C@H](O)[C@H](O)[C@H]1O [CONVALLATOXIN] | −3.689 | 11 | activity at 1 µM [2]: 12%; SD from Mean ([1]; Table 5S, pilot screen, 10 μM): −3.689 SD |
| CCCCCCCCCOc1ccc2[nH]cc(CCN)c2c1 [5-Nonyloxytryptamine] | −3.607 | 5 | – |
| CC(=O)[C@]1(O)Cc2c(O)c3c(c(O)c2[C@@H](O[C@H]2C[C@H](N)[C@H](O)[C@H](C)O2)C1)C(=O)c1ccccc1C3=O [IDARUBICIN HCl] | – | – | SD from Mean ([1]; Table 1, 24 hrs, single 10 μM dose, Z-score of luciferase, HCl): −2.944 SD |
| Cl.Cl.O=C1c2c(O)ccc(O)c2C(=O)c2c(NCCNCCO)ccc(NCCNCCO)c21 [MITOXANTHRONE HYDROCHLORIDE] | −4.333 | – | – |
| CC[C@@]1(O)C[C@H](O[C@H]2C[C@H](N(C)C)[C@H](O)[C@H](C)O2)c2c(cc3c(c2O)C(=O)c2c(O)cccc2C3=O)[C@H]1C(=O)OC [AKLAVINE HYDROCHLORIDE] | −3.741 | – | – |
| C[n+]1c2cc(N)ccc2cc2ccc(N)cc21.[Cl-] [ACRIFLA VINIUM HYDROCHLORIDE, ACRIFLAVINIUM HYDROCHLORIDE] | −4.148 | – | – |
| CCCCCCc1ccc(O)cc1O.Nc1c2ccccc2nc2ccccc12 [ACRISORCIN] | −3.600 | – | – |
| C[C@]12CC[C@H](O)C[C@H]1CC[C@@H]1[C@@H]2CC[C@]2(C)[C@@H](C3=CC(=O)OC3)CC[C@]12O [Digitoxigenin] | −3.629 | 13 | activity at 1 µM [2]: 38%; SD from Mean ([1]; Table 5S, pilot screen, 10 μM): −3.629 SD |
| CC[C@@]1(O)C[C@H](O)c2c(cc3c(c2O)C(=O)c2c(O)ccc(O)c2C3=O)[C@H]1C(=O)OC [RUTILANTINONE] | −2.722 | – | – |
| CC(C)/N=c1\cc2n(-c3ccc(Cl)cc3)c3ccccc3nc-2cc1Nc1ccc(Cl)cc1 [CLOFAZIMINE] | −2.792 | – | – |
| CO[C@H]1C[C@H](O[C@H]2CC[C@]3(C=O)[C@H]4CC[C@]5(C)[C@@H](C6=CC(=O)OC6)CC[C@]5(O)[C@@H]4CC[C@]3(O)C2)O[C@H](C)[C@H]1O [CYMARIN] | −4.099 | 16 | activity at 1 µM [2]: 14%; SD from Mean ([1]; Table 5S, pilot screen, 10 μM): −4.099 SD |
| CC(=O)O[C@@H]1C[C@@]2(C)[C@H](c3ccoc3)C[C@H]3O[C@]32[C@]2(C)C(=O)C(O)=C3C(C)(C)C(=O)C=C[C@]3(C)[C@@H]12 [ANTHOTHECOL] | −3.020 | – | – |

| Molecule | SD from Mean [1, 3] [SD] | activity at 10 µM [2] [%] | further results |
| --- | --- | --- | --- |
| COc1cccc2c1C(=O)c1c(O)c3c(c(O)c1C2=O)C[C@@](O)(C(C)=O)C[C@@H]3O[C@H]1C[C@H](N)[C@H](O)[C@H](C)O1 [Daunorubicin hydrochloride] | −4.155 | – | – |
| CO[C@H]1C=C[C@@]23c4cc5c(cc4CN(C[C@@H]2O)[C@H]3C1)OCO5 [CRINAMINE] | −3.651 | – | – |
| CC[C@H]1CN2CCc3cc(OC)c(OC)cc3[C@@H]2C[C@@H]1C[C@H]1NCCc2cc(OC)c(OC)cc21 [Emetine dihydrochloride] | −4.840 | 19 | activity at 1 µM [2]: 18%; SD from Mean ([1]; Table 5S, pilot screen, 10 μM): −4.840 SD |
| C[C@]12CC[C@H](O)C[C@H]1CC[C@@H]1[C@@H]2C[C@@H](O)[C@]2(C)[C@@H](C3=CC(=O)OC3)CC[C@]12O [Digoxigenin] | −3.264 | 22 | activity at 1 µM [2]: 90%; SD from Mean ([1]; Table 5S, pilot screen, 10 μM): −3.264 SD |
| O=C(Nc1ccc([N+](=O)[O-])cc1Cl)c1cc(Cl)ccc1O [Niclosamide] | −4.393 | – | – |
| CC(=O)Oc1cccc(O)c1 [RESORCINOL MONOACETATE] | −6.242 | 5 | activity at 1 µM [2]: 120%; SD from Mean ([1]; Table 5S, pilot screen, 10 μM): −6.242 SD |
| CO[C@H]1[C@H](O)[C@H](O[C@H]2CC[C@@]3(C)[C@H](CC[C@@H]4[C@@H]3CC[C@]3(C)[C@@H](C5=CC(=O)OC5)CC[C@]43O)C2)O[C@@H](C)[C@@H]1O [NERIIFOLIN] | −3.045 | 17 | activity at 1 µM [2]: 17% |
| COc1ccc(C[C@H]2NC[C@H](O)[C@H]2OC(C)=O)cc1 [Anisomycin] | −4.015 | – | – |
| COc1ccc(C[C@H](N)C(=O)N[C@H]2[C@@H](O)[C@H](n3cnc4c(N(C)C)ncnc43)O[C@@H]2CO)cc1 [Puromycin dihydrochloride] | – | – | SD from Mean ([1]; Table 1, 24 hrs, single 10 μM dose, Z-score of luciferase, dihydrochloride): −4.723 SD |
| CC[C@@]1(O)C(=O)OCc2c1cc1n(c2=O)Cc2cc3ccccc3nc2-1 [Camptothecine (S+)] | −5.283 | – | – |
| O=c1[nH]c(=O)n([C@H]2C[C@H](O)[C@@H](CO)O2)cc1C(F)(F)F [Trifluridine] | −5.158 | 71 | SD from Mean ([1]; Table 5S, pilot screen, 10 μM): −5.158 SD |
| CO[C@H]1C[C@H](O[C@H]2CC[C@]3(C)[C@H]4CC[C@]5(C)[C@@H](C6=CC(=O)OC6)CC[C@]5(O)[C@@H]4CC[C@]3(O)C2)O[C@H](C)[C@H]1O [PERIPLOCYMARIN] | −2.759 | 17 | activity at 1 µM [2]: 75% |
| C[C@H]1CC[C@]2(NC1)O[C@H]1C[C@H]3[C@@H]4CC[C@H]5C[C@@H](O[C@@H]6O[C@H](CO)[C@H](O[C@@H]7O[C@H](CO)[C@@H](O)[C@H](O[C@@H]8OC[C@@H](O)[C@H](O)[C@H]8O)[C@H]7O[C@@H]7O[C@H](CO)[C@@H](O)[C@H](O)[C@H]7O)[C@H](O)[C@H]6O)CC[C@]5(C)[C@H]4CC[C@]3(C)[C@H]1[C@@H]2C [TOMATINE] | −4.999 | – | – |
| Nc1ccn([C@@H]2O[C@H](CO)[C@@H](O)[C@@H]2O)c(=O)n1 [CYTARABINE] | −3.681 | – | – |
| COc1ccc(C[C@H](N)C(=O)N[C@H]2[C@@H](O)[C@H](n3cnc4c(N(C)C)ncnc43)O[C@@H]2CO)cc1 [PUROMYCIN HYDROCHLORIDE] | – | – | SD from Mean ([1]; Table 1, 24 hrs, single 10 μM dose, Z-score of luciferase, HYDROCHLORIDE): −3.716 SD |
| CC(=O)[C@]1(O)Cc2c(O)c3c(c(O)c2[C@@H](O[C@H]2C[C@H](N)[C@H](O)[C@H](C)O2)C1)C(=O)c1ccccc1C3=O [IDARUBICIN] | −2.719 | – | – |
| Cc1c2ccncc2c(C)c2c1[nH]c1ccccc12 [Ellipticine] | −3.485 | – | – |
| N=C1C=CC(=C(c2ccc(N)cc2)c2ccc(N)cc2)C=C1 [PARAROSANILINE PAMOATE] | −2.740 | – | – |
| THIMEROSAL | −5.645 | – | – |
| Lycorine hydrochloride | −2.968 | – | – |
| O=C1C=C2C(=CCOC2O)O1 (stereo not drawn) [PATULIN] | −3.651 | – | – |
| COC(=O)[C@]1(C)CC[C@]2(C)CC[C@]3(C)C4=CC=C5C(=CC(=O)C(O)=C5C)[C@]4(C)CC[C@@]3(C)[C@@H]2C1 [PRISTIMERIN] | −3.883 | – | – |
| COc1cc(/C=C/C(=O)N2CCC=CC2=O)cc(OC)c1OC [Piperlongumine] | −2.973 | – | – |
| CCN(CC)CCCC(C)Nc1c2ccc(Cl)cc2nc2ccc(OC)cc12 (stereo not drawn) [Quinacrine dihydrochloride dihydrate] | −3.270 | – | – |
| O=C1c2c(O)ccc(O)c2C(=O)c2c(NCCNCCO)ccc(NCCNCCO)c21 [Mitoxantrone dihydrochloride] | −3.666 | – | – |
